In PubChem BioAssay AID2060490 (Molecular Pharmacology Branch, DTP, NCI, 2025):
pIC50: −log10 of the molar value.

Test system: 885512-296-R-J2-PDC complex spheroid viability
Assay: Anticancer human tumor 885512-296-R-J2-PDC patient-derived breast carcinoma cell line growth inhibition [GQUAD]
Settings: for pIC50: curve of first compound; for viability, T/C: stronger effect = lower value
Source text: DNA G-quadruplex Stabilizer Agents in Combinations in Complex Spheroids
A high-throughput screen of multi-cell type tumor spheroids was designed to identify active combinations of DNA G-quadruplex stabilizer agents and targeted small molecules. Complex spheroids include a stromal component modeled by human endothelial cells (HUVEC) and fibroblasts modeled by human mesenchymal stem cells (MSCs). The concentration ranges selected for each drug and investigational agent were based upon clinically achievable concentrations if the clinical Cmax of the agent was known.
Compounds. The drugs and investigational agents: pidnarulex (CX-5461; NSC782164), APTO-253 (NSC789042), BRACO-19 (NSC847499), peposertib (NSC802822), ceralasertib (NSC780249), elimusertib (NSC800525), camonsertib (NSC841442), AZD-1390 (NSC803789), olaparib (NSC753686), talazoparib (NSC767125), ART-558 (NSC835418), sotorasib (NSC818433), MRTX-1133 (NSC836407), SN-38 (NSC673596), topotecan (NSC609699), etoposide (NSC141540), doxorubicin (NSC123127), gemcitabine (NSC613327), 5-fluorouracil (NSC19893), paclitaxel (NSC125973), vemurafenib (NSC761431), panobinostat (NSC761190), R-306465 (JNJ-16241199; NSC773264), adavosertib (NSC754352), TP-3654 (NSC805149), carboplatin (NSC241240), KSQ-4279 (NSC840948), and staurosporine (NSC755774) were obtained from the National Cancer Institute (NCI) Developmental Therapeutics Program Chemical Repository (34). The FDA-approved anticancer drug set is available from the NCI Developmental Therapeutics Program. […] The stock solutions were prepared in dimethyl sulfoxide (DMSO, Sigma-Aldrich, St. Louis, MO, cat. D2650) at 800-fold the tested concentration and stored at -70 degrees C prior to their use. All drugs and investigational agents were tested over a range starting from a high concentration at or near the clinical Cmax and decreasing in half-log increments. If the clinical Cmax for an agent had not been determined, the highest concentration tested was 10 microM.
2.3 Cell Culture. All cells were maintained in an incubator at 37 degrees C and 5% CO2 with 95% humidity. The PDC lines were cultured according to standard operating procedures established by the NCI PDMR. All PDCs were thawed and cultured in Matrigel-coated flasks prepared with a working solution of 1X Ham's F-12 nutrient mix, without supplementation (Invitrogen, cat. 11765054), 100 U/mL penicillin-streptomycin (Invitrogen, cat. 15140122), and 2.5% Matrigel (Corning Inc., cat. 354248) for the first three passages. The 857933-349-R-J2-PDC line was cultured in 6C/Colon 1B media, which includes advanced DMEM/F-12 (Thermo Fisher Scientific, cat. 12634028), 10 mM HEPES (Thermo Fisher Scientific, cat. 15630080), 1X GlutaMAX supplement (Thermo Fisher Scientific, cat. 35050061), 0.1 mg/mL primocin (InvivoGen, cat. ant-pm-2), 10% defined fetal bovine serum, heat inactivated (HyClone Laboratories Inc., cat. SH30070.03HI), 50% L-WRN conditioned media (ATCC, cat. CRL-3276), 1.25 mM N-Acetyl-L-cysteine (Sigma-Aldrich, cat. A9165), 10 mM nicotinamide (Sigma-Aldrich, cat. N0636), 1X B-27 supplement (Thermo Fisher Scientific, cat. 17504044), 1X N-2 supplement (Thermo Fisher Scientific, cat. 17502048), 10 microM Y-27632 dihydrochloride (Tocris Bioscience, cat. 1254), and 50 ng/mL human EGF recombinant protein (Thermo Fisher Scientific, cat. PHG0311). The 485176-168-R4-J1-PDC line was cultured in Panc media, which includes all 6C/Colon 1B media components plus 100 ng/mL human FGF-10 (Thermo Fisher Scientific, cat. 100-26), 500 nM SB-431542 (Selleckchem, cat. S1067), and gastrin (Tocris, cat. 3006).
[…]

[1] = second compound 0.0316 µM, first compound 0.0316 µM
[2] = second compound 0.0316 µM, first compound 0.316 µM
[3] = second compound 0.1 µM, first compound 0.0316 µM
[4] = second compound 0.1 µM, first compound 0.316 µM
[5] = second compound 0.316 µM, first compound 0.0316 µM
[6] = second compound 0.316 µM, first compound 0.316 µM
[7] = second compound 1 µM, first compound 0.0316 µM
[8] = second compound 1 µM, first compound 0.316 µM
[9] = second compound 3.16 µM, first compound 0.0316 µM
[10] = second compound 3.16 µM, first compound 0.316 µM
[11] = second compound 10 µM, first compound 0.0316 µM
[12] = second compound 10 µM, first compound 0.316 µM
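Note: spheroids exposed to the compounds for one week.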
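Throughout, for viability, T/C: percent of tumor spheroid viability relative to DMSO vehicle control wells.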

`C=CC(=O)N1CCN(c2nc(=O)n(-c3c(C)ccnc3C(C)C)c3nc(-c4c(O)cccc4F)c(F)cc23)C(C)C1` (centres undefined) + CN(C)c1ccc(Nc2c3ccc(NC(=O)CCN4CCCC4)cc3nc3cc(NC(=O)CCN4CCCC4)ccc23)cc1 was tested, and the pIC50 (second compound 0.0316 µM) was under 5.00, the pIC50 (second compound 0.1 µM) was under 5.00 and the pIC50 (second compound 0.316 µM) was under 5.00. For the same molecule, the pIC50 (second compound 1 µM) was under 5.00, the pIC50 (second compound 3.16 µM) was under 5.00 and the pIC50 (second compound 10 µM) was over 7.50. The viability, T/C [1] was 104%, the viability, T/C (second compound 0.0316 µM, first compound 0.1 µM) was 94.9% and the viability, T/C [2] was 108%. For the same molecule, the viability, T/C (second compound 0.0316 µM, first compound 1 µM) was 103%, the viability, T/C (second compound 0.0316 µM, first compound 3.16 µM) was 102% and the viability, T/C (second compound 0.0316 µM, first compound 10 µM) was 105%. For the same molecule, the viability, T/C [3] was 111%, the viability, T/C (second compound 0.1 µM, first compound 0.1 µM) was 99.5% and the viability, T/C [4] was 101%. It also gave a viability, T/C (second compound 0.1 µM, first compound 1 µM) of 108%, a viability, T/C (second compound 0.1 µM, first compound 3.16 µM) of 114% and a viability, T/C (second compound 0.1 µM, first compound 10 µM) of 100%. It also gave a viability, T/C [5] of 107%, a viability, T/C (second compound 0.316 µM, first compound 0.1 µM) of 97.9% and a viability, T/C [6] of 103%. It also gave a viability, T/C (second compound 0.316 µM, first compound 1 µM) of 119%, a viability, T/C (second compound 0.316 µM, first compound 3.16 µM) of 99.9% and a viability, T/C (second compound 0.316 µM, first compound 10 µM) of 105%. The viability, T/C [7] was 101%, the viability, T/C (second compound 1 µM, first compound 0.1 µM) was 88.8% and the viability, T/C [8] was 101%. For the same molecule, the viability, T/C (second compound 1 µM, first compound 1 µM) was 117%, the viability, T/C (second compound 1 µM, first compound 3.16 µM) was 102% and the viability, T/C (second compound 1 µM, first compound 10 µM) was 108%. For the same molecule, the viability, T/C [9] was 106%, the viability, T/C (second compound 3.16 µM, first compound 0.1 µM) was 115% and the viability, T/C [10] was 120%. It also gave a viability, T/C (second compound 3.16 µM, first compound 1 µM) of 129%, a viability, T/C (second compound 3.16 µM, first compound 3.16 µM) of 103% and a viability, T/C (second compound 3.16 µM, first compound 10 µM) of 77.7%. The viability, T/C [11] was 27%, the viability, T/C (second compound 10 µM, first compound 0.1 µM) was 21.7% and the viability, T/C [12] was 21.9%. For the same molecule, the viability, T/C (second compound 10 µM, first compound 1 µM) was 18.9%, the viability, T/C (second compound 10 µM, first compound 3.16 µM) was 20.6% and the viability, T/C (second compound 10 µM, first compound 10 µM) was 10.3%.

In the case of `CCc1c2c(nc3ccc(O)cc13)-c1cc3c(c(=O)n1C2)COC(=O)[C@]3(O)CC` + Cc1cnc(CNC(=O)c2c(=O)c3ccc(N4CCCN(C)CC4)nc3n3c2sc2ccccc23)cn1, the pIC50 (second compound 0.0316 µM) was over 9.00, the pIC50 (second compound 0.1 µM) was over 9.00 and the pIC50 (second compound 0.316 µM) was over 9.00. For the same molecule, the pIC50 (second compound 1 µM) was over 9.00, the pIC50 (second compound 3.16 µM) was over 9.00 and the pIC50 (second compound 10 µM) was over 9.00. The viability, T/C (second compound 0.0316 µM, first compound 0.000999 µM) was 17.9%, the viability, T/C (second compound 0.0316 µM, first compound 0.00316 µM) was 8.3% and the viability, T/C (second compound 0.0316 µM, first compound 0.00999 µM) was 5.81%. For the same molecule, the viability, T/C [1] was 3.27%, the viability, T/C (second compound 0.0316 µM, first compound 0.0999 µM) was 2% and the viability, T/C [2] was 1.37%. It also gave a viability, T/C (second compound 0.1 µM, first compound 0.000999 µM) of 17%, a viability, T/C (second compound 0.1 µM, first compound 0.00316 µM) of 10.5% and a viability, T/C (second compound 0.1 µM, first compound 0.00999 µM) of 6.32%. It also gave a viability, T/C [3] of 4.29%, a viability, T/C (second compound 0.1 µM, first compound 0.0999 µM) of 2.34% and a viability, T/C [4] of 1.47%. For the same molecule, the viability, T/C (second compound 0.316 µM, first compound 0.000999 µM) was 16.3%, the viability, T/C (second compound 0.316 µM, first compound 0.00316 µM) was 12.1% and the viability, T/C (second compound 0.316 µM, first compound 0.00999 µM) was 9.75%. For the same molecule, the viability, T/C [5] was 4.25%, the viability, T/C (second compound 0.316 µM, first compound 0.0999 µM) was 1.6% and the viability, T/C [6] was 1.03%. For the same molecule, the viability, T/C (second compound 1 µM, first compound 0.000999 µM) was 16.7%, the viability, T/C (second compound 1 µM, first compound 0.00316 µM) was 14.3% and the viability, T/C (second compound 1 µM, first compound 0.00999 µM) was 7.19%. The viability, T/C [7] was 1.29%, the viability, T/C (second compound 1 µM, first compound 0.0999 µM) was 0.07% and the viability, T/C [8] was 0.1%. It also gave a viability, T/C (second compound 3.16 µM, first compound 0.000999 µM) of 26.4%, a viability, T/C (second compound 3.16 µM, first compound 0.00316 µM) of 19.8% and a viability, T/C (second compound 3.16 µM, first compound 0.00999 µM) of 2.82%. It also gave a viability, T/C [9] of 0.24%, a viability, T/C (second compound 3.16 µM, first compound 0.0999 µM) of 0.06% and a viability, T/C [10] of 0.1%. It also gave a viability, T/C (second compound 10 µM, first compound 0.000999 µM) of 0.08%, a viability, T/C (second compound 10 µM, first compound 0.00316 µM) of 0.14% and a viability, T/C (second compound 10 µM, first compound 0.00999 µM) of 0.13%. The viability, T/C [11] was 0.1%, the viability, T/C (second compound 10 µM, first compound 0.0999 µM) was 0.11% and the viability, T/C [12] was 0.13%.
